# ChEMBL document CHEMBL5303573, “Mapping human microbiome drug metabolism by gut bacteria and their genes” (Nature, 2019)
# Tests used:
# [1] = The drug is tested on Bacteroides coprophilus strain: DSM18228 for biotransformation. The drug concentrations were measured before and after a 12-h incubation by liquid-chromatography-coupled mass spectrometry (LC–MS); details: 2 µM
# [2] = The drug is tested on Bacteroides finegoldii strain: DSM17565 for biotransformation. The drug concentrations were measured before and after a 12-h incubation by liquid-chromatography-coupled mass spectrometry (LC–MS); details: 2 µM
# [3] = The drug is tested on Bacteroides fragilis strain: HMW610 for biotransformation. The drug concentrations were measured before and after a 12-h incubation by liquid-chromatography-coupled mass spectrometry (LC–MS); details: 2 µM
# [4] = The drug is tested on Bacteroides ovatus strain: ATCC8483 for biotransformation. The drug concentrations were measured before and after a 12-h incubation by liquid-chromatography-coupled mass spectrometry (LC–MS); details: 2 µM
# [5] = The drug is tested on Bacteroides sp. WH2 strain: WH2 for biotransformation. The drug concentrations were measured before and after a 12-h incubation by liquid-chromatography-coupled mass spectrometry (LC–MS); details: bacteroides sp. wh2, 12 h, 2 µM
# [6] = The drug is tested on Odoribacter splanchnicus strain: fecal isolate for biotransformation. The drug concentrations were measured before and after a 12-h incubation by liquid-chromatography-coupled mass spectrometry (LC–MS); details: 2 µM
# [7] = The drug is tested on Anaerococcus hydrogenalis strain: DSM7454 for biotransformation. The drug concentrations were measured before and after a 12-h incubation by liquid-chromatography-coupled mass spectrometry (LC–MS); details: 2 µM
# [8] = The drug is tested on Clostridium sp. strain: fecal isolate for biotransformation. The drug concentrations were measured before and after a 12-h incubation by liquid-chromatography-coupled mass spectrometry (LC–MS); details: 2 µM
# [9] = The drug is tested on Clostridium sporogenes strain: ATCC15579 for biotransformation. The drug concentrations were measured before and after a 12-h incubation by liquid-chromatography-coupled mass spectrometry (LC–MS); details: 2 µM
# [10] = The drug is tested on Dorea formicigenerans strain: ATCC27755 for biotransformation. The drug concentrations were measured before and after a 12-h incubation by liquid-chromatography-coupled mass spectrometry (LC–MS); details: 2 µM
# [11] = The drug is tested on Eubacterium hallii strain: DSM3353 for biotransformation. The drug concentrations were measured before and after a 12-h incubation by liquid-chromatography-coupled mass spectrometry (LC–MS); details: anaerobutyricum hallii, 2 µM
# [12] = bifidobacterium adolescentis, 12 h, 2 µM
# Description: The drug is tested on Bifidobacterium adolescentis strain: ATCC 15703 for biotransformation. The drug concentrations were measured before and after a 12-h incubation by liquid-chromatography-coupled mass spectrometry (LC–MS)
# [13] = bacteroides eggerthii, 12 h, 2 µM
# Description: The drug is tested on Bacteroides eggerthii strain: DSM20697 for biotransformation. The drug concentrations were measured before and after a 12-h incubation by liquid-chromatography-coupled mass spectrometry (LC–MS)
# [14] = bacteroides fragilis, 12 h, 2 µM
# Description: The drug is tested on Bacteroides fragilis strain: NCTC 9343 for biotransformation. The drug concentrations were measured before and after a 12-h incubation by liquid-chromatography-coupled mass spectrometry (LC–MS)
# [15] = bacteroides fragilis, 12 h, 2 µM; remark: listed apart in the source
# Description: The drug is tested on Bacteroides fragilis strain: DS-208 for biotransformation. The drug concentrations were measured before and after a 12-h incubation by liquid-chromatography-coupled mass spectrometry (LC–MS)
# [16] = bacteroides thetaiotaomicron, 12 h, 2 µM
# Description: The drug is tested on Bacteroides thetaiotaomicron strain: 3731 for biotransformation. The drug concentrations were measured before and after a 12-h incubation by liquid-chromatography-coupled mass spectrometry (LC–MS)
# [17] = segatella copri, 12 h, 2 µM
# Description: The drug is tested on Prevotella copri strain: DSM18205 for biotransformation. The drug concentrations were measured before and after a 12-h incubation by liquid-chromatography-coupled mass spectrometry (LC–MS)
# [18] = roseburia intestinalis, 12 h, 2 µM
# Description: The drug is tested on Roseburia intestinalis strain: L1-82 for biotransformation. The drug concentrations were measured before and after a 12-h incubation by liquid-chromatography-coupled mass spectrometry (LC–MS)
# [19] = akkermansia muciniphila, 12 h, 2 µM
# Description: The drug is tested on Akkermansia muciniphila strain: ATCC BAA-835 for biotransformation. The drug concentrations were measured before and after a 12-h incubation by liquid-chromatography-coupled mass spectrometry (LC–MS)
# [20] = The drug is tested on Clostridium asparagiforme strain: DSM15981 for biotransformation. The drug concentrations were measured before and after a 12-h incubation by liquid-chromatography-coupled mass spectrometry (LC–MS); type: ADME; design: dose 2 uM, timepoint 0 vs 12 hours; details: enterocloster asparagiformis, 2 µM
Bacterial Biotransformation [1],Bacterial Biotransformation [2],Bacterial Biotransformation [3],Bacterial Biotransformation [4],Bacterial Biotransformation [5],Bacterial Biotransformation [6],Bacterial Biotransformation [7],Bacterial Biotransformation [8],Bacterial Biotransformation [9],Bacterial Biotransformation [10],Bacterial Biotransformation [11],Bacterial Biotransformation [12],Bacterial Biotransformation [13],Bacterial Biotransformation [14],Bacterial Biotransformation [15],Bacterial Biotransformation [16],Bacterial Biotransformation [17],Bacterial Biotransformation [18],Bacterial Biotransformation [19],SMILES,Bacterial Biotransformation [20]
Compound NOT metabolized,Compound NOT metabolized,Compound NOT metabolized,Compound NOT metabolized,Compound NOT metabolized,Compound NOT metabolized,Compound NOT metabolized,Compound NOT metabolized,Compound NOT metabolized,Compound NOT metabolized,Compound NOT metabolized,Compound NOT metabolized,Compound NOT metabolized,Compound NOT metabolized,Compound NOT metabolized,Compound NOT metabolized,Compound NOT metabolized,Compound NOT metabolized,Compound NOT metabolized,CN1CCc2c(c3ccccc3n2Cc2ccccc2)C1.CN1CCc2c(c3ccccc3n2Cc2ccccc2)C1.O=S(=O)(O)c1cccc2c(S(=O)(=O)O)cccc12,
Compound metabolized,Compound metabolized,Compound metabolized,Compound metabolized,Compound metabolized,Compound metabolized,Compound NOT metabolized,Compound NOT metabolized,Compound NOT metabolized,Compound NOT metabolized,Compound NOT metabolized,,Compound metabolized,Compound metabolized,Compound metabolized,Compound metabolized,Compound metabolized,Compound NOT metabolized,Compound NOT metabolized,CC(=O)OCC(CCn1cnc2cnc(N)nc21)COC(C)=O [FAMCICLOVIR],
Compound NOT metabolized,Compound NOT metabolized,Compound NOT metabolized,Compound NOT metabolized,Compound NOT metabolized,Compound NOT metabolized,Compound NOT metabolized,Compound NOT metabolized,Compound NOT metabolized,Compound NOT metabolized,Compound NOT metabolized,Compound NOT metabolized,Compound NOT metabolized,Compound NOT metabolized,Compound NOT metabolized,Compound NOT metabolized,Compound NOT metabolized,Compound NOT metabolized,Compound NOT metabolized,CC(C)(C(=O)O)c1ccc(C(O)CCCN2CCC(C(O)(c3ccccc3)c3ccccc3)CC2)cc1 (stereo not drawn) [FEXOFENADINE],
Compound metabolized,Compound metabolized,Compound NOT metabolized,Compound metabolized,Compound metabolized,Compound metabolized,Compound NOT metabolized,Compound NOT metabolized,Compound NOT metabolized,Compound NOT metabolized,Compound NOT metabolized,Compound NOT metabolized,Compound NOT metabolized,Compound metabolized,Compound metabolized,Compound metabolized,Compound metabolized,Compound metabolized,Compound metabolized,COc1ccc2c(c1)c(CC(=O)O)c(C)n2C(=O)c1ccc(Cl)cc1 [INDOMETHACIN],
Compound NOT metabolized,Compound NOT metabolized,Compound NOT metabolized,Compound NOT metabolized,Compound NOT metabolized,Compound NOT metabolized,Compound NOT metabolized,Compound NOT metabolized,Compound NOT metabolized,Compound NOT metabolized,Compound NOT metabolized,Compound NOT metabolized,Compound NOT metabolized,Compound NOT metabolized,Compound NOT metabolized,Compound NOT metabolized,Compound NOT metabolized,Compound NOT metabolized,Compound NOT metabolized,CN1CCC(=C2c3ccccc3CC(=O)c3sccc32)CC1.O=C(O)/C=C/C(=O)O [KETOTIFEN FUMARATE],
Compound NOT metabolized,Compound NOT metabolized,Compound NOT metabolized,Compound NOT metabolized,Compound NOT metabolized,Compound NOT metabolized,Compound NOT metabolized,Compound NOT metabolized,Compound NOT metabolized,Compound NOT metabolized,Compound NOT metabolized,Compound NOT metabolized,Compound NOT metabolized,Compound NOT metabolized,Compound NOT metabolized,Compound NOT metabolized,Compound NOT metabolized,Compound NOT metabolized,Compound NOT metabolized,CC(CCc1ccccc1)NCC(O)c1ccc(O)c(C(N)=O)c1 (stereo not drawn) [LABETALOL],
Compound NOT metabolized,,Compound NOT metabolized,,Compound NOT metabolized,Compound NOT metabolized,,,,,Compound NOT metabolized,Compound NOT metabolized,Compound NOT metabolized,Compound NOT metabolized,Compound NOT metabolized,Compound NOT metabolized,Compound NOT metabolized,Compound NOT metabolized,Compound NOT metabolized,Cc1ccccc1N1C(=O)c2cc(S(N)(=O)=O)c(Cl)cc2NC1C (stereo not drawn) [METOLAZONE],Compound NOT metabolized

SMILES,Bacterial Biotransformation [1],Bacterial Biotransformation [2],Bacterial Biotransformation [3],Bacterial Biotransformation [4],Bacterial Biotransformation [5],Bacterial Biotransformation [6],Bacterial Biotransformation [7],Bacterial Biotransformation [8],Bacterial Biotransformation [9],Bacterial Biotransformation [10],Bacterial Biotransformation [11],Bacterial Biotransformation [12],Bacterial Biotransformation [13],Bacterial Biotransformation [14],Bacterial Biotransformation [15],Bacterial Biotransformation [16],Bacterial Biotransformation [17],Bacterial Biotransformation [18],Bacterial Biotransformation [19],Bacterial Biotransformation [20]
OCCN1CCN(CCCN2c3ccccc3Sc3ccc(C(F)(F)F)cc32)CC1 [FLUPHENAZINE],Compound NOT metabolized,Compound metabolized,,Compound NOT metabolized,Compound NOT metabolized,,Compound NOT metabolized,,Compound NOT metabolized,Compound metabolized,Compound metabolized,Compound NOT metabolized,Compound NOT metabolized,Compound metabolized,Compound metabolized,Compound metabolized,Compound metabolized,Compound metabolized,Compound NOT metabolized,Compound NOT metabolized
Nc1nc(N)nc(-c2cc(Cl)ccc2Cl)n1.O=C(O)/C=C\C(=O)O [IRSOGLADINE MALEATE],Compound NOT metabolized,Compound NOT metabolized,Compound NOT metabolized,Compound NOT metabolized,Compound NOT metabolized,Compound NOT metabolized,Compound NOT metabolized,Compound NOT metabolized,Compound NOT metabolized,Compound NOT metabolized,Compound NOT metabolized,Compound NOT metabolized,Compound NOT metabolized,Compound NOT metabolized,Compound NOT metabolized,Compound NOT metabolized,Compound NOT metabolized,Compound NOT metabolized,Compound NOT metabolized,
